Experiments:
[1] = tested on: HCT-116; assay: Cell cycle arrest in human HCT116 cells assessed as accumulation at G2/M phase at 0.2 uM after 24 hrs by FACS flow cytometry (reference value: 13 %); assay type: functional
[2] = tested on: Mus musculus; assay: Toxicity in nude BALB/c mouse xenografted with human HT-29 cells assessed as body weight change at 300 mg/kg, ip qd after 21 days (reference value: 2.7 g); assay type: organism-based; set-up: dose 300 mg/kg, route intraperitoneal; conditions: in vivo, 504 h
[3] = tested on: Mus musculus; assay: Toxicity in nude BALB/c mouse xenografted with human HT-29 cells assessed as body weight change at 150 mg/kg, ip qd after 21 days (reference value: 2.7 g); assay type: organism-based; set-up: dose 150 mg/kg, route intraperitoneal; conditions: in vivo, 504 h
[4] = tested on: HT-29; assay: Antitumor activity against human HT-29 cells xenografted in nude BALB/c mouse assessed as decrease in tumor volume at 150 mg/kg, ip qd measured on day 21 relative to vehicle-treated control; assay type: functional; conditions: route intraperitoneal
[5] = tested on: Mus musculus; assay: Toxicity in nude BALB/c mouse xenografted with human HT-29 cells assessed as effect on lymphocyte count at 300 mg/kg, ip qd after 21 days (reference value: 15.88 +/- 0.41 x 10^3 mm'-3); assay type: organism-based; set-up: dose 300 mg/kg, route intraperitoneal; conditions: in vivo, 504 h
[6] = tested on: Mus musculus; assay: Toxicity in nude BALB/c mouse xenografted with human HT-29 cells assessed as mortality at 300 mg/kg, ip qd after 21 days; assay type: organism-based; set-up: dose 300 mg/kg, route intraperitoneal; conditions: in vivo, 504 h
[7] = tested on: K562; assay: Cytotoxicity against human K562 cells after 72 hrs by MTT assay; assay type: functional, cell-based; conditions: K562, 72 h
[8] = tested on: Mus musculus; assay: Toxicity in ICR mouse assessed as body weight loss at 600 mg/kg, ip administered on day 1 measured for 10 days relative to vehicle-treated control; assay type: organism-based; set-up: dose 600 mg/kg, route intraperitoneal; conditions: in vivo, 240 h
[9] = tested on: HCT-116; assay: Cell cycle arrest in human HCT116 cells assessed as accumulation at G2/M phase at 2 uM after 24 hrs by FACS flow cytometry; assay type: functional
[10] = tested on: HCT-116; assay: cells; conditions: Homo sapiens, HCT-116, 72 h
[11] = tested on: Mus musculus; assay: Toxicity in nude BALB/c mouse xenografted with human HT-29 cells assessed as effect on ALP level at 150 mg/kg, ip qd after 21 days (reference value: 107.6 +/- 0.8 IU/L); assay type: organism-based; set-up: dose 150 mg/kg, route intraperitoneal; conditions: in vivo, 504 h
[12] = tested on: Mus musculus; assay: Toxicity in nude BALB/c mouse xenografted with human HT-29 cells assessed as effect on WBC count at 300 mg/kg, ip qd after 21 days (reference value: 25.38 +/- 0.22 x 10^3 mm'-3); assay type: organism-based; set-up: dose 300 mg/kg, route intraperitoneal; conditions: in vivo, 504 h
[13] = tested on: Mus musculus; assay: Toxicity in nude BALB/c mouse xenografted with human HT-29 cells assessed as effect on ALT level at 100 mg/kg, ip qd after 21 days (reference value: 28 +/- 0.4 IU/L); assay type: organism-based; set-up: dose 100 mg/kg, route intraperitoneal; conditions: in vivo, 504 h
[14] = tested on: Mus musculus; assay: Toxicity in nude BALB/c mouse xenografted with human HT-29 cells assessed as mortality at 150 mg/kg, ip qd after 21 days; assay type: organism-based; set-up: dose 150 mg/kg, route intraperitoneal; conditions: in vivo, 504 h
[15] = tested on: Mus musculus; assay: Toxicity in ICR mouse assessed as mortality at 150 to 600 mg/kg, ip administered on day 1; assay type: organism-based; set-up: dose 150-600 mg/kg, route intraperitoneal; conditions: in vivo
[16] = tested on: Mus musculus; assay: Toxicity in nude BALB/c mouse xenografted with human HT-29 cells assessed as effect on platelet count at 100 mg/kg, ip qd after 21 days (reference value: 1509 +/- 34 x 10^3 mm'-3); assay type: organism-based; set-up: dose 100 mg/kg, route intraperitoneal; conditions: in vivo, 504 h
[17] = tested on: MDA-MB-435; assay: cells; conditions: Homo sapiens, MDA-MB-435, 72 h
Description: Cytotoxicity against human MDA-MB-435 cells after 72 hrs by MTT assay

[18] = tested on: ZR-75-30; assay: Cytotoxicity against human ZR75-30 cells after 72 hrs by MTT assay; assay type: functional, cell-based; conditions: ZR-75-30, 72 h
[19] = tested on: CCRF-CEM; assay: Cytotoxicity against human CEM cells after 72 hrs by MTT assay; assay type: functional, cell-based
[20] = tested on: Mus musculus; assay: Toxicity in nude BALB/c mouse xenografted with human HT-29 cells assessed as effect on platelet count at 300 mg/kg, ip qd after 21 days (reference value: 1509 +/- 34 x 10^3 mm'-3); assay type: organism-based; set-up: dose 300 mg/kg, route intraperitoneal; conditions: in vivo, 504 h
[21] = tested on: Mus musculus; assay: Toxicity in nude BALB/c mouse xenografted with human HT-29 cells assessed as mortality at 100 mg/kg, ip qd after 21 days; assay type: organism-based; set-up: dose 100 mg/kg, route intraperitoneal; conditions: in vivo, 504 h
[22] = tested on: HCT-116; assay: Cell cycle arrest in human HCT116 cells assessed as decrease in accumulation at G1 phase after 24 hrs by FACS flow cytometry; assay type: functional, cell-based
[23] = tested on: Mus musculus; assay: Toxicity in nude BALB/c mouse xenografted with human HT-29 cells assessed as effect on ALP level at 100 mg/kg, ip qd after 21 days (reference value: 107.6 +/- 0.8 IU/L); assay type: organism-based; set-up: dose 100 mg/kg, route intraperitoneal; conditions: in vivo, 504 h
[24] = biological target: Tubulin (Sus scrofa, UniProt P02554+P02550); assay: Inhibition of porcine brain tubulin assembly measured every 1 min for 60 mins by turbidimetric analysis
[25] = tested on: Mus musculus; assay: Toxicity in nude BALB/c mouse xenografted with human HT-29 cells assessed as effect on lymphocyte count at 150 mg/kg, ip qd after 21 days (reference value: 15.88 +/- 0.41 x 10^3 mm'-3); assay type: organism-based; set-up: dose 150 mg/kg, route intraperitoneal; conditions: in vivo, 504 h
[26] = tested on: Mus musculus; assay: Toxicity in nude BALB/c mouse xenografted with human HT-29 cells assessed as effect on platelet count at 150 mg/kg, ip qd after 21 days (reference value: 1509 +/- 34 x 10^3 mm'-3); assay type: organism-based; set-up: dose 150 mg/kg, route intraperitoneal; conditions: in vivo, 504 h
[27] = tested on: HCT-116; assay: Cell cycle arrest in human HCT116 cells assessed as increase in accumulation at G2/M phase after 24 hrs by FACS flow cytometry; assay type: functional, cell-based
[28] = tested on: HT-29; assay: Antitumor activity against human HT-29 cells xenografted in nude BALB/c mouse assessed as decrease in tumor volume at 100 mg/kg, ip qd measured on day 21 relative to vehicle-treated control; assay type: functional; conditions: route intraperitoneal
[29] = tested on: Mus musculus; assay: Toxicity in nude BALB/c mouse xenografted with human HT-29 cells assessed as effect on ALP level at 300 mg/kg, ip qd after 21 days (reference value: 107.6 +/- 0.8 IU/L); assay type: organism-based; set-up: dose 300 mg/kg, route intraperitoneal; conditions: in vivo, 504 h
[30] = tested on: HT-29; assay: Antitumor activity against human HT-29 cells xenografted in nude BALB/c mouse assessed as decrease in tumor volume at 300 mg/kg, ip qd measured on day 21 relative to vehicle-treated control; assay type: functional; conditions: route intraperitoneal
[31] = tested on: HT-29; assay: Cytotoxicity against human HT-29 cells after 72 hrs by MTT assay; assay type: functional, cell-based; conditions: HT-29, 72 h
[32] = tested on: Mus musculus; assay: Toxicity in nude BALB/c mouse xenografted with human HT-29 cells assessed as effect on WBC count at 100 mg/kg, ip qd after 21 days (reference value: 25.38 +/- 0.22 x 10^3 mm'-3); assay type: organism-based; set-up: dose 100 mg/kg, route intraperitoneal; conditions: in vivo, 504 h
[33] = tested on: Mus musculus; assay: Toxicity in nude BALB/c mouse xenografted with human HT-29 cells assessed as change in kidney morphology at 100 to 300 mg/kg, ip qd after 21 days relative to vehicle-treated control; assay type: organism-based; set-up: dose 100-300 mg/kg, route intraperitoneal; conditions: in vivo, 504 h
[34] = tested on: Mus musculus; assay: Toxicity in nude BALB/c mouse xenografted with human HT-29 cells assessed as effect on ALT level at 300 mg/kg, ip qd after 21 days (reference value: 28 +/- 0.4 IU/L); assay type: organism-based; set-up: dose 300 mg/kg, route intraperitoneal; conditions: in vivo, 504 h
[35] = tested on: Mus musculus; assay: Toxicity in nude BALB/c mouse xenografted with human HT-29 cells assessed as change in spleen morphology at 100 to 300 mg/kg, ip qd after 21 days relative to vehicle-treated control; assay type: organism-based; set-up: dose 100-300 mg/kg, route intraperitoneal; conditions: in vivo, 504 h
[36] = tested on: Mus musculus; assay: Toxicity in nude BALB/c mouse xenografted with human HT-29 cells assessed as body weight change at 100 mg/kg, ip qd after 21 days (reference value: 2.7 g); assay type: organism-based; set-up: dose 100 mg/kg, route intraperitoneal; conditions: in vivo, 504 h
[37] = tested on: Mus musculus; assay: Toxicity in nude BALB/c mouse xenografted with human HT-29 cells assessed as effect on lymphocyte count at 100 mg/kg, ip qd after 21 days (reference value: 15.88 +/- 0.41 x 10^3 mm'-3); assay type: organism-based; set-up: dose 100 mg/kg, route intraperitoneal; conditions: in vivo, 504 h
[38] = tested on: HCT-116; assay: Cell cycle arrest in human HCT116 cells assessed as decrease in accumulation at S phase after 24 hrs by FACS flow cytometry; assay type: functional, cell-based
[39] = tested on: Mus musculus; assay: Toxicity in nude BALB/c mouse xenografted with human HT-29 cells assessed as change in liver morphology at 100 to 300 mg/kg, ip qd after 21 days relative to vehicle-treated control; assay type: organism-based; set-up: dose 100-300 mg/kg, route intraperitoneal; conditions: in vivo, 504 h
[40] = tested on: Mus musculus; assay: Toxicity in nude BALB/c mouse xenografted with human HT-29 cells assessed as effect on WBC count at 150 mg/kg, ip qd after 21 days (reference value: 25.38 +/- 0.22 x 10^3 mm'-3); assay type: organism-based; set-up: dose 150 mg/kg, route intraperitoneal; conditions: in vivo, 504 h
[41] = tested on: Mus musculus; assay: Toxicity in nude BALB/c mouse xenografted with human HT-29 cells assessed as effect on ALT level at 150 mg/kg, ip qd after 21 days (reference value: 28 +/- 0.4 IU/L); assay type: organism-based; set-up: dose 150 mg/kg, route intraperitoneal; conditions: in vivo, 504 h
[42] = tested on: HT-29; assay: Antitumor activity against human HT-29 cells xenografted in ip dosed nude BALB/c mouse assessed as decrease in tumor volume administered as qd measured on day 21; assay type: functional, organism-based

## COc1ccc2c(c1)CCC(=O)/C2=C/c1cc(OC)c(OC)c(OC)c1
[1]
  Activity: 17%
[2]
  Activity: 2.6 g
[3]
  Activity: 3 g
[4]
  T/C: 45%
[5]
  Activity: 8.87 ×10³ /mm3
[6]
  Activity: Non-toxic
[7]
  IC50: 1 nM
[8]
  Activity: Non-toxic
[9]
  Activity: 74%
[10]
  IC50: 100 nM
[11]
  Activity: 116.3 IU/L
[12]
  Activity: 19.96 ×10³ /mm3
[13]
  Activity: 24 IU/L
[14]
  Activity: Non-toxic
[15]
  Activity: Non-toxic
[16]
  Activity: 1440 ×10³ /mm3
[17]
  IC50: 1 nM
[18]
  IC50: 10 nM
[19]
  IC50: 1 nM
[20]
  Activity: 1240 ×10³ /mm3
[21]
  Activity: Non-toxic
[22]
  Activity: Dose-dependent effect
[23]
  Activity: 112 IU/L
[24]
  IC50: 3930 nM
[25]
  Activity: 10.03 ×10³ /mm3
[26]
  Activity: 1375 ×10³ /mm3
[27]
  Activity: Dose-dependent effect
[28]
  T/C: 52%
[29]
  Activity: 107.6 IU/L
[30]
  T/C: 34%
[31]
  IC50: 10 nM
[32]
  Activity: 24.42 ×10³ /mm3
[33]
  Activity: Non-toxic
[34]
  Activity: 26 IU/L
[35]
  Activity: Non-toxic
[36]
  Activity: 2.3 g
[37]
  Activity: 11.08 ×10³ /mm3
[38]
  Activity: Dose-dependent effect
[39]
  Activity: Non-toxic
[40]
  Activity: 20.18 ×10³ /mm3
[41]
  Activity: 28 IU/L
[42]
  Activity: Dose-dependent effect

— ChEMBL document CHEMBL2150986, “Synthesis and biological evaluation of 1-benzylidene-3,4-dihydronaphthalen-2-one as a new class of microtubule-targeting agents” (J Med Chem, 2012)
